Test results published in patent US11925616B2, “Compositions comprising urolithin compounds” (Amazentis SA, priority 2015, dated 2024).
Blank lines part the entries; values can stand above or below the compound they belong to.

Legend:
[1] = in vivo; parameters: species or system male Sprague-Dawley rats; conditions: male, Sprague-Dawley, rat, po, 25 mg/kg
Description: The solutions for gavage were prepared as follows: 35 mg of urolithin A powder was diluted in 7 ml of 15% DMSO, 0.5% methyl cellulose/0.25% Tween 80 in water, resulting in a 5 mg/ml fine suspension. The DMSO was obtained from BDH, methyl cellulose was obtained from Sigma, and Tween 80 was obtained from Sigma-Aldrich.
Blood was collected from the rats by jugular vein cannulation at different time points, and urolithin A was quantified in the plasma to determine its pharmacokinetic profile following oral gavage of Sample #1, Sample #2, and Sample #3. The study was repeated on three rats for each sample. […]

[2] = Particle size determinations for urolithin A; type: physicochemical; conditions: for D10 / D50 / D90: Malvern Particle Size analyzer, before and after micronization
Description: The particle size of urolithin A was reduced in a controlled manner using an MC50 Spiral Jetmill, using filtered nitrogen, with a feed rate of 240 g/hr, a Venturi pressure of 12 bar, and a mill pressure of 12 bar. Different particle size distributions of urolithin A were determined on a Malvern Particle Size analyzer (Malvern Instruments, UK). Three samples were evaluated in depth.

[3] = tested on: myotubes; conditions: in vitro; cited from earlier work
[4] = micronized urolithin used in the formulations of Example 1

- D10, actual particle size [2, 4]: 0.7 μm
- D50, actual particle size [2, 4]: 3.9 μm
- D90, actual particle size [2, 4]: 11.5 μm
Compound: O=c1oc2cc(O)ccc2c2ccc(O)cc12 [Urolithin A]
- effect on mean diameter of myotubes [3]: not seen

- AUC [1]: 94.8 ng·h/mL
- Cmax [1]: 17.4 ng/mL
- Relative Cmax (% of non-micronized Cmax) [1]: 102%
- Relative bioavailability (% AUC of non-micronized urolithin A) [1]: 126%
- Tmax [1]: 30 min
- increase in the AUC in comparison to Sample #1 [1]: 26%
- D10 [2]: 0.597 μm
- D50 [2]: 5.67 μm
- D90 [2]: 40.1 μm
Compound: O=c1oc2cc(O)ccc2c2ccc(O)cc12 [Sample #3, Urolithin A]

The remaining lines, values behind:

Compound: O=c1oc2cc(O)ccc2c2ccc(O)cc12 [Sample #1, Urolithin A]
- Cmax [1]: 17.1 ng/mL
- Relative Cmax (% of non-micronized Cmax) [1]: 100%
- Relative bioavailability (% AUC of non-micronized urolithin A) [1]: 100%
- AUC ([1]; AUC): 75.1 ng·h/mL
- Tmax ([1]; Tmax (h)): 15 min
- D10 [2]: 1.03 μm
- D50 [2]: 53.4 μm
- D90 [2]: 365 μm

Compound: O=c1oc2cc(O)ccc2c2ccc(O)cc12 [Sample #2, Urolithin A]
- AUC [1]: 96.2 ng·h/mL
- Cmax [1]: 37 ng/mL
- Relative Cmax (% of non-micronized Cmax) [1]: 216%
- Relative bioavailability (% AUC of non-micronized urolithin A) [1]: 128%
- Tmax [1]: 19.8 min
- fold increase in the Cmax in comparison to Sample #1 [1]: 2.16 fold
- increase in the AUC in comparison to Sample #1 [1]: 28%
- relative increase in the Cmax in comparison to Sample #1 [1]: 116%
- D10 [2]: 0.272 μm
- D50 [2]: 2.17 μm
- D90 [2]: 6.84 μm

Compound: O=c1oc2cc(O)ccc2c2ccccc12 [Urolithin B]
- effect on mean diameter of myotubes [3]: increased the mean diameter of myotubes
